From ChEMBL document CHEMBL4680215, “Substituted 1-methyl-4-phenylpyrrolidin-2-ones - Fragment-based design of N-methylpyrrolidone-derived bromodomain inhibitors” (Eur J Med Chem, 2020)

What follows are compounds tested against Bromodomain-containing protein 4 (Homo sapiens, UniProt O60885) (assay: Inhibition of GST-tagged BRD4-BD1 (49 to 170 residues) (unknown origin) using Histone H4 peptide as substrate incubated for 1.5 hrs by FRET assay).

Row | SMILES | IC50
1 | CN1CC(c2ccc(Br)cc2)CC1=O (stereo not given) | 417 µM
2 | CCN(CC)S(=O)(=O)c1ccc(C2CC(=O)N(C)C2)c(-c2csc3ccccc23)c1 (stereo not given) | 2670 µM
3 | CC(C)NS(=O)(=O)c1ccc(C2CC(=O)N(C)C2)cc1 (stereo not given) | 134 µM
4 | CCNS(=O)(=O)c1ccc(C2CC(=O)N(C)C2)cc1 (stereo not given) | 250 µM
5 | CN1CC(c2ccc(S(=O)(=O)N3CCCc4ccccc43)cc2)CC1=O (stereo not given) | 450 µM
6 | CN1CC(c2ccccc2Br)CC1=O (stereo not given) | 321 µM
7 | CCCNS(=O)(=O)c1ccc(C2CC(=O)N(C)C2)cc1 (stereo not given) | 147 µM
8 | CN1CC(c2ccc(S(=O)(=O)N3C4CCC3CC(=O)C4)cc2)CC1=O (stereo not given) | 223 µM
9 | CCN(CC)S(=O)(=O)c1ccc(C2CC(=O)N(C)C2)c(-c2ccc(OC)c(OC)c2)c1 (stereo not given) | 51.6 µM
10 | CN1CC(c2ccc(-c3ccccc3)cc2)CC1=O (stereo not given) | 434 µM
11 | CCN(CC)S(=O)(=O)c1ccc(C2CC(=O)N(C)C2)cc1 (stereo not given) | 123 µM
12 | CCN(CC)S(=O)(=O)c1ccc([C@H]2CC(=O)N(C)C2)c(-c2ccc(OC)c(OC)c2)c1 | 14.1 µM
13 | CN1CC(c2ccc(S(=O)(=O)N3CCC[C@@H](C(=O)O)C3)cc2)CC1=O (stereo not given in full) | 1680 µM

Second part, the compound after the results:

Row | IC50 | SMILES
14 | 3200 µM | CCN(CC)S(=O)(=O)c1ccc(C2CC(=O)N(C)C2)c(-c2ccccc2)c1 (stereo not given)
15 | 575 µM | CN1CC(c2ccccc2-c2ccccc2)CC1=O (stereo not given)
16 | 1140 µM | CN1CC(c2ccccc2)CC1=O (stereo not given)
17 | 1960 µM | CN1CC(c2ccc(S(=O)(=O)N3CCC[C@H](C(=O)O)C3)cc2)CC1=O (stereo not given in full)
18 | 443 µM | CN1CC(c2ccc(S(=O)(=O)NCc3ccccc3)cc2)CC1=O (stereo not given)
19 | 473 µM | CN1CC(c2ccc(S(=O)(=O)N3CCC(c4ccccc4)CC3)cc2)CC1=O (stereo not given)
20 | 4500 µM | CCN(CC)S(=O)(=O)c1ccc(C2CC(=O)N(C)C2)c(CCc2ccccc2)c1 (stereo not given)
21 | 217 µM | CCN(CC)S(=O)(=O)c1ccc(C2CC(=O)N(C)C2)c(-c2ccc(N(C)C)cc2)c1 (stereo not given)
22 | 652 µM | CCN(CC)S(=O)(=O)c1ccc(C2CC(=O)N(C)C2)c(Br)c1 (stereo not given)
23 | > 5000 µM | CCN(CC)S(=O)(=O)c1ccc(C2CC(=O)N(C)C2)c(CCCc2ccccc2)c1 (stereo not given)
24 | 35.2 µM | CCN(CC)S(=O)(=O)c1ccc([C@@H]2CC(=O)N(C)C2)c(-c2ccc(OC)c(OC)c2)c1
25 | 1390 µM | CN1CC(c2ccc(S(=O)(=O)NCCCn3ccnc3)cc2)CC1=O (stereo not given)
26 | 629 µM | CN1C[C@@H](c2ccccc2)CC1=O
27 | 151 µM | CN1CC(c2ccc(S(=O)(=O)NC34CC5CC(CC(C5)C3)C4)cc2)CC1=O (stereo not given)
28 | 276 µM | CN1CC(c2ccc(S(=O)(=O)N3CCOCC3)cc2)CC1=O (stereo not given)
29 | 144 µM | CN1CC(c2ccc(S(=O)(=O)N3CCCCC3)cc2)CC1=O (stereo not given)
30 | 1430 µM | CN1C[C@H](c2ccccc2)CC1=O
